This passage reports mass density and refractive index results from the NIST ThermoML archive (doi:10.1021/je049605r).

For data set [1] the following is noted: 293.2 K; 101.33 kPa; Liquid.
Data set [2] can be described thus: refractive index (Na D-line) (dimensionless). The conditions noted are these: 293.2 K; 101.33 kPa; Liquid; Standard Abbe refractometry.

The structures appear in SMILES notation. ± gives the expanded uncertainty stated by the source.

Broadly, the mass density is mass per unit of volume. As usually defined, the refractive index is a measure of how strongly the sample bends light. Turning to `OCC1CCCO1` (stereo unspecified) [2-tetrahydrofurylmethanol], in data set [1], the mass density turned out to be 1055.1 ± 0.6 kg/m3. In addition, the refractive index in data set [2] turned out to be 1.4525 ± 0.0007.

Take `Clc1ccccc1` [chlorobenzene]: the mass density in data set [1] is listed as 1106.2 ± 0.4 kg/m3. The refractive index in data set [2] was 1.5244 ± 0.0007.

As to `C1CCCCC1` [cyclohexane], in data set [1], the mass density amounted to 779.3 ± 0.6 kg/m3. Further, the refractive index in data set [2] came to 1.4269 ± 0.0007.

As to `OC1CCCCC1` [cyclohexanol], the mass density in data set [1] amounted to 963.5 ± 9.6 kg/m3. For the same compound, the refractive index in data set [2] came to 1.4648 ± 0.0007.

`CC(=O)OC1CCCCC1` [cyclohexyl ethanoate]: in data set [1], the mass density stood at 970.3 ± 0.3 kg/m3. Also, in data set [2], the refractive index is recorded as 1.441 ± 0.0007.

On to `O` [water], for which, in data set [2], the refractive index was 1.3326 ± 0.0007.
